Legend:
algae cells [1] = assay: Loading of algae with astaxanthin, microscopic examination; set-up: species or system Cyclotella meneghiniana; details: over 24 hours
Procedure: A rehydration composition was prepared by adding 1 g of synthetic astaxanthin to 200 ml of fresh, potable water, then microwaving 3 times for 1 min each time.
The algae were then rehydrated by blending the astaxanthin solution (suspension) together with 1 litre of potable water and 200 mg of the algae powder for 2 minutes.
Astaxanthin particles were able to penetrate inside algae cells and were also absorbed by the porous surface of the siliceous exoskeleton (frustule).

algae cells [2] = assay: Loading of freeze-dried algae with vitamin C by rehydration; vitamin C in algal cells by HPLC-DAD; set-up: species or system Cyclotella meneghiniana; details: rehydration in 5 g/L vitamin C; incubation at 28° C.
Procedure: A rehydration composition was prepared by dissolving 500 mg per litre vitamin C in filtered natural (North Sea) seawater (20° C.). A second rehydration composition was prepared by dissolving 5 g per litre vitamin C in the seawater. As a control, a third rehydration composition consisted of just the clean seawater without any vitamin C added.
The algae were then rehydrated by adding one of the rehydration compositions to a standard kitchen blender (Kenwood KM230, 650 W, with blender attachment). The blender was switched on at a moderate mixing speed (speed 4) to agitate the rehydration composition. Then 10 g per litre of freeze-dried algae was added to the rehydration composition while mixing, and the freeze-dried algae was allowed to blend into the rehydration composition for 2 minutes. Cell integrity after rehydration was verified using a microscope.
Each of the three rehydration compositions comprising rehydrated algae were split into six replicates. Three replicates of each composition were harvested immediately after rehydration. The remaining three replicates of the treatment groups were incubated in a water bath at 28° C. and provided with moderate aeration. […]
The concentration of vitamin C in the algal cells of the treatment groups and control at the different time points were then analysed by high-performance liquid chromatography with Diode-Array Detection.

SMILES	stability of association of astaxanthin particles within algae cells (algae cells [1])	time for which the vitamin C level in the algae cells was maintained (algae cells [2]) [h]
CC1=C(/C=C/C(C)=C/C=C/C(C)=C/C=C/C=C(C)/C=C/C=C(C)/C=C/C2=C(C)C(=O)[C@@H](O)CC2(C)C)C(C)(C)C[C@H](O)C1=O [astaxanthin]	remained stable	–
O=C1O[C@H]([C@@H](O)CO)C(O)=C1O [vitamin C]	–	≥ 6

From US20210196816A1, “ALGAE COMPRISING THERAPEUTIC AND/OR NUTRITIONAL AGENTS” (TomAlgae CVBA, priority 2016, published 2021)
